Reference: patent US9889146B2, “Benzoxaborole compounds and uses thereof” (priority 2012, dated 2018)
Values after ≈ are worked out from the molar mass of the structure shown. Like-named read-outs stand apart in the source and are kept apart here.

Experiments:
Assay type in all cases: cell-based
[1] = system: E. coli clinical isolates from subject E. coli 1; assay: GSK2251052 MIC of clinical isolates, subject E. coli 1; details: Escherichia coli, read-out: GSK2251052 MIC GSK results
Experimental: (§1) The E. coli and P. mirabilis strains were cultured on Trypticase Soy Agar/5% blood plates (Becton Dickinson BBL), in cation adjusted Mueller-Hinton II Broth, or in M9 minimal salts (Becton Dickinson) broth containing 0.4% glucose and 200 uM MgSO4. L-Norvaline (Sigma-Aldrich) was prepared at a concentration of 6.4 mg/ml in […], in a final volume of approx 0.5 ml, and stored at −20° C. until required.
(§2) Minimum inhibitory concentrations (MICs) were determined using the CLSI (Clinical and Laboratory Standards Institute, formerly NCCLS) recommended broth microdilution methodology [NCCLS, 2003] using defined media.

[2] = system: E. coli isolates from subject E. coli 1; assay: MIC in M9 minimal media of clinical isolates, subject E. coli 1; details: Escherichia coli, read-out: MIC in M9 Minimal Media
Experimental: as §1, §2
Throughout this study E. coli and P. mirabilis strains were cultured on Trypticase Soy Agar/5% blood plates, on M9 salts/1.2% Bacto Agar plates, in Cation Adjusted Mueller-Hinton II Broth (CAMHB), or in M9 Minimal Salt Broth containing 0.4% glucose and 200 μM MgSO4. GSK2251052 and norvaline were prepared at a concentration of 6.4 mg/mL (free base) in 100% DMSO and 100% water respectively, aliquoted in 0.5 mL individual stocks, and stored at −20° C. until required.
Minimum inhibitory concentrations (MICs) were determined for each organism using the CLSI (Clinical and Laboratory Standards Institute) recommended broth microdilution methodology [CLSI, 2009].
Strains tested are detailed in Table 15. MICs for norvaline and GSK2251052 could only be determined for E. coli isolates from subject E. coli 1 (Table 16) as M9 Minimal Media could not sustain growth of E. coli isolates from subject E. coli 2 (isolates 2a-2o) or P. mirabilis isolates (isolates 3a-3c) from subject E. coli 3. […] This phenotype is consistent with a mutation in the editing site of LeuRS, which could also be responsible for the concomitant decrease in susceptibility to GSK2251052 observed in isolates from Days 2, 3 and 4 (Table 16).

Proteus mirabilis (WT) = assay: microbe, parasite or virus in culture; details: Proteus mirabilis (WT)
[3] = system: P. aeruginosa ATCC 27853 wild type and mutants; assay: MIC, wild type and GSK2251052 resistant mutants; details: Pseudomonas aeruginosa
In short: (§3)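 MICs were determined following CLSI M7-A7 recommendations for aerobic bacteria. Strains were E. coli ATCC 25922, K. pneumoniae ATCC 13883, P. aeruginosa ATCC 27853 and six to ten laboratory-selected GSK2251052-resistant colonies of each, carrying mutations in the LeuRS editing domain.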

[4] = system: K. pneumoniae ATCC 13883 wild type and mutants; assay: MIC, wild type and GSK2251052 resistant mutants; details: Klebsiella pneumoniae
In short: as §3

[5] = system: E. coli ATCC 25922 wild type and mutants; assay: MIC, wild type and GSK2251052 resistant mutants; details: Escherichia coli
In short: as §3

Work on `NC[C@H]1OB(O)c2c(OCCCO)cccc21` [GSK2251052, (S)-3-aminomethyl-7-(3-hydroxy-propoxy)-3h-benzo[c][1,2]oxaborol-1-ol] yielded an MIC ([1]; 24 h, subject E. Coli 1, day 1, first line, no LeuRS change) of 0.5 µg/mL, an MIC ([1]; 24 h, subject E. Coli 1, day 1, second line, no LeuRS change) of 0.25 µg/mL and an MIC ([1]; 48 h) of 16 µg/mL. It also gave an MIC ([1]; 72 h) of 16 µg/mL, an MIC ([1]; 96 h) of 16 µg/mL and an MIC ([2]; 24 h, Isolate 1a, Blood, Day 1) of 1 µg/mL (≈ 4.22 µM). It also gave an MIC ([2]; 24 h, Isolate 1b, Urine, Day 1) of 1 µg/mL (≈ 4.22 µM), an MIC ([2]; 48 h, Isolate 1c, Blood, Day 2) of 32 µg/mL (≈ 135 µM) and an MIC ([2]; 96 h, Isolate 1e, Blood, Day 4) of 32 µg/mL (≈ 135 µM). For the same compound, the MIC ([2]; Isolate 1d, Blood, Day 3) was 32 µg/mL (≈ 135 µM), the MIC90 (Proteus mirabilis (WT); 235 isolates, read-out: MIC90) was 1 µg/mL (≈ 4.22 µM) and the susceptibility category of MIC90 (Proteus mirabilis (WT); GSK2251052 breakpoint, read-out: susceptibility category of MIC90) was less than 4 µg/mL. For the same compound, the MIC ([3]; ATCC27853, P wt, leuRS mutation none, read-out: MIC) was 4 µg/mL (≈ 16.9 µM), the MIC ([3]; ATCC27853, P. aeruginosa WT, read-out: GSK2251052 MIC) was 4 µg/mL (≈ 16.9 µM) and the MIC ([3]; ATCC27853, mutant P101, leuRS T256P) was 128 µg/mL (≈ 540 µM). The MIC ([3]; ATCC27853, mutant P102, leuRS T256P (ditto mark)) was 32 µg/mL (≈ 135 µM), the MIC ([3]; ATCC27853, mutant P103, leuRS T256P (ditto mark)) was 64 µg/mL (≈ 270 µM) and the MIC ([3]; ATCC27853, mutant P104, leuRS T256P (ditto mark)) was 128 µg/mL (≈ 540 µM). It also gave an MIC ([3]; ATCC27853, mutant P105, leuRS T256P (ditto mark)) of 128 µg/mL (≈ 540 µM), an MIC ([3]; ATCC27853, mutant P106, leuRS V342M) greater than 256 µg/mL and an MIC ([3]; ATCC27853, mutant P107, leuRS V342M (ditto mark)) of 128 µg/mL (≈ 540 µM). The MIC ([3]; ATCC27853, mutant P108, leuRS T252P) was 128 µg/mL (≈ 540 µM), the MIC ([3]; ATCC27853, mutant P109, leuRS V342M) was 128 µg/mL (≈ 540 µM) and the MIC ([3]; ATCC27853, mutant P110, leuRS V342M (ditto mark)) was greater than 256 µg/mL. It also gave an MIC ([4]; ATCC13883, K wt, leuRS mutation none, read-out: MIC) of 1 µg/mL (≈ 4.22 µM), an MIC ([4]; ATCC13883, K. pneumoniae WT, read-out: GSK2251052 MIC) of 1 µg/mL (≈ 4.22 µM) and an MIC ([4]; ATCC13883, mutant K104, leuRS D345Y) greater than 256 µg/mL. The MIC ([4]; ATCC13883, mutant K105, leuRS G229R) was greater than 256 µg/mL, the MIC ([4]; ATCC13883, mutant K107, leuRS S227F) was 256 µg/mL (≈ 1080 µM) and the MIC ([4]; ATCC13883, mutant K108, leuRS T248P) was greater than 256 µg/mL. It also gave an MIC ([4]; ATCC13883, mutant K109, leuRS T248P (ditto mark)) greater than 256 µg/mL, an MIC ([4]; ATCC13883, mutant K110, leuRS V338L) of 256 µg/mL (≈ 1080 µM) and an MIC ([5]; ATCC25922, E wt, leuRS mutation none, read-out: MIC) of 1 µg/mL (≈ 4.22 µM). The MIC ([5]; ATCC25922, E. coli WT, read-out: GSK2251052 MIC) was 1 µg/mL (≈ 4.22 µM), the MIC ([5]; ATCC25922, mutant E101, leuRS Y246H) was 64 µg/mL (≈ 270 µM) and the MIC ([5]; ATCC25922, mutant E102, leuRS D345G) was 256 µg/mL (≈ 1080 µM). It also gave an MIC ([5]; ATCC25922, mutant E103, leuRS D345G (ditto mark)) of 256 µg/mL (≈ 1080 µM), an MIC ([5]; ATCC25922, mutant E104, leuRS Y246H) of 64 µg/mL (≈ 270 µM) and an MIC ([5]; ATCC25922, mutant E105, leuRS D345G) of 256 µg/mL (≈ 1080 µM). It also gave an MIC ([5]; ATCC25922, mutant E106, leuRS D345G) of 256 µg/mL (≈ 1080 µM), an MIC ([5]; ATCC25922, mutant E107, leuRS G229S) greater than 256 µg/mL and an MIC ([5]; ATCC25922, mutant E108, leuRS D345G) of 256 µg/mL (≈ 1080 µM). For the same compound, the MIC ([5]; ATCC25922, mutant E109, leuRS D345G (ditto mark)) was 256 µg/mL (≈ 1080 µM) and the MIC ([5]; ATCC25922, mutant E110, leuRS Duplication D345 Y346) was greater than 256 µg/mL.
